What follows are substances tested on HLA-A*24 (assay: MHC binding assay, UV-ligand exchange with beta2m ELISA (exchange yield), HLA-A*24). Settings: binding to HLA-A*24, UV-ligand exchange.
Set-up: species or system human
Method in brief: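 Peptide–MHC complexes formed by UV-ligand exchange: a UV-cleavable peptide is replaced by the test peptide, and only binders keep the complex stable. Exchange yield read by streptavidin-capture ELISA on reactions diluted 100-fold, detected with HRP anti-β2m (2 ug/ml, 1 h, 37° C) and TMB at 450 nm.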

Row | Substance | Peptide exchange (MHC class I binding score, peptide exchange yield)
1 | 107 (KYFPYLVVI; listed as Homo sapiens) [compound 107] | +++ (50%-75% = +++)
2 | 110 (SYPKIIEEF; listed as Homo sapiens) [compound 110] | +++ (50%-75% = +++)
3 | 363 (SYAELGTTI; listed as Homo sapiens) [compound 363] | ++ (20%-49% = ++)
4 | 177 (VYFKAGLDVF; listed as Homo sapiens) [compound 177] | +++ (50%-75% = +++)
5 | 162 (KYTSYILAF; listed as Homo sapiens) [compound 162] | ++ (20%-49% = ++)
6 | 114 (QYLDGTWSL; listed as Homo sapiens) [compound 114] | ++++ (>=75% = ++++)
7 | 180 (KYLQVVGMF; listed as Homo sapiens) [compound 180] | +++ (50%-75% = +++)
8 | 109 (LFITGGQFF; listed as Homo sapiens) [compound 109] | ++++ (>=75% = ++++)
9 | 163 (RYLTISNLQF; listed as Homo sapiens) [compound 163] | ++++ (>=75% = ++++)
10 | 166 (FYTLPFHLI; listed as Homo sapiens) [compound 166] | ++++ (>=75% = ++++)
11 | 182 (AYAQLGYLLF; listed as Homo sapiens) [compound 182] | ++++ (>=75% = ++++)
12 | 356 (NYMPGQLTI; listed as Homo sapiens) [compound 356] | ++++ (>=75% = ++++)
13 | 380 (VYTGIDHHW; listed as Homo sapiens) [compound 380] | ++++ (>=75% = ++++)
14 | 144 (VFASLPGFLF; listed as Homo sapiens) [compound 144] | ++++ (>=75% = ++++)
15 | 155 (IYKWITDNF; listed as Homo sapiens) [compound 155] | ++++ (>=75% = ++++)
16 | 371 (AYSHLRYVF; listed as Homo sapiens) [compound 371] | ++ (20%-49% = ++)
17 | 277 (FYTFPFQQL; listed as Homo sapiens) [compound 277] | +++ (50%-75% = +++)
18 | 104 (SYLTWHQQI; listed as Homo sapiens) [compound 104] | ++++ (>=75% = ++++)
19 | 360 (VFSPDGHLF; listed as Homo sapiens) [compound 360] | +++ (50%-75% = +++)
20 | 140 (RYLINSYDF; listed as Homo sapiens) [compound 140] | ++++ (>=75% = ++++)

Row | Substance | Peptide exchange (MHC class I binding score, peptide exchange yield)
21 | 105 (IYNETITDLL; listed as Homo sapiens) [compound 105] | +++ (50%-75% = +++)
22 | 103 (NYIPVKNGKQF; listed as Homo sapiens) [compound 103] | +++ (50%-75% = +++)
23 | 156 (YYMELTKLLL; listed as Homo sapiens) [compound 156] | ++++ (>=75% = ++++)
24 | 115 (RYLNKSFVL; listed as Homo sapiens) [compound 115] | +++ (50%-75% = +++)
25 | 102 (VYPFENFEF; listed as Homo sapiens) [compound 102] | +++ (50%-75% = +++)
26 | 168 (RYLEAALRL; listed as Homo sapiens) [compound 168] | +++ (50%-75% = +++)
27 | 112 (IYNFVESKL; listed as Homo sapiens) [compound 112] | +++ (50%-75% = +++)
28 | 106 (IYNETVRDLL; listed as Homo sapiens) [compound 106] | +++ (50%-75% = +++)
29 | 96 (YYTQYSQTI; listed as Homo sapiens) [compound 96] | ++++ (>=75% = ++++)
30 | 351 (IFHEVPLKF; listed as Homo sapiens) [compound 351] | +++ (50%-75% = +++)
31 | 99 (QYILAVPVL; listed as Homo sapiens) [compound 99] | ++++ (>=75% = ++++)
32 | 344 (EYNSDLHQF; listed as Homo sapiens) [compound 344] | +++ (50%-75% = +++)
33 | 174 (VYEKNGYIYF; listed as Homo sapiens) [compound 174] | +++ (50%-75% = +++)
34 | 158 (IYEETRGVLKVF; listed as Homo sapiens) [compound 158] | +++ (50%-75% = +++)
35 | 359 (NYGVLHVTF; listed as Homo sapiens) [compound 359] | ++++ (>=75% = ++++)
36 | 157 (DYIPASGFALF; listed as Homo sapiens) [compound 157] | +++ (50%-75% = +++)
37 | 367 (LYQDHMQYI; listed as Homo sapiens) [compound 367] | ++ (20%-49% = ++)
38 | 132 (RYPALFPVL; listed as Homo sapiens) [compound 132] | ++++ (>=75% = ++++)
39 | 137 (EYLHNCSYF; listed as Homo sapiens) [compound 137] | ++++ (>=75% = ++++)

The substances below were run on CD8+ T cells (assay: In vitro immunogenicity: T-cell priming with aAPCs loaded with HLA-A*24 peptide/MHC and anti-CD28, multimer staining). Settings: HLA-A*24 peptides.
Assay type: cell-based, human
Protocol: CD8+ T cells were primed using artificial APCs coated with anti-CD28 mAb and HLA-A*24 in complex with SEQ ID NO: 99 peptide (FIG. 5A, left panel), SEQ ID NO: 119 peptide (FIG. 5B, left panel), SEQ ID NO: 142 peptide (FIG. 5C, left panel) and SEQ ID NO: 174 peptide FIG. 5 (D, left panel), respectively. After three cycles of stimulation, the detection of peptide-reactive cells was performed by 2D multimer staining with A*24/SEQ ID NO: 99 (FIG. 5A), A*24/SEQ ID NO: 119 (FIG. 5B), A*24/SEQ ID NO: 142 (FIG. 5C) or A*24/SEQ ID NO: 174 (FIG. 5D). Right panels (FIGS. 5A,5B,5C and 5D) show control staining of cells stimulated with irrelevant A*24/peptide complexes. Viable singlet cells were gated for CD8+ lymphocytes. Boolean gates helped excluding false-positive events detected with multimers specific for different peptides. Frequencies of specific multimer+ cells among CD8+ lymphocytes are indicated.
Generation of pMHC/anti-CD28 coated beads, T-cell stimulations and readout was performed in a highly defined in vitro system using four different pMHC molecules per stimulation condition and 8 different pMHC molecules per readout condition.
The purified co-stimulatory mouse IgG2a anti human CD28 Ab 9.3 (Jung et al., 1987) was chemically biotinylated using Sulfo-N-hydroxysuccinimidobiotin as recommended by the manufacturer (Perbio, Bonn, Germany). Beads used were 5.6 μm diameter streptavidin coated polystyrene particles (Bangs Laboratories, Illinois, USA).
800.000 beads/200 μl were coated in 96-well plates in the presence of 4×12.5 ng different biotin-pMHC, washed and 600 ng biotin anti-CD28 were added subsequently in a volume of 200 μl. Stimulations were initiated in 96-well plates by co-incubating 1×10^6 CD8+ T cells with 2×10^5 washed coated beads in 200 μl TCM supplemented with 5 ng/ml IL-12 (PromoCell) for 3 days at 37° C. Half of the medium was then exchanged by fresh TCM supplemented with 80 U/ml IL-2 and incubating was continued for 4 days at 37° C. This stimulation cycle was performed for a total of three times. For the pMHC multimer readout using 8 different pMHC molecules per condition, a two-dimensional combinatorial coding approach was used as previously described (Andersen et al., 2012) with minor modifications encompassing coupling to 5 different fluorochromes. Finally, multimeric analyses were performed by staining the cells with Live/dead near IR dye (Invitrogen, Karlsruhe, Germany), CD8-FITC antibody clone SK1 (BD, Heidelberg, Germany) and fluorescent pMHC multimers. For analysis, a BD LSRII SORP cytometer equipped with appropriate lasers and filters was used. Peptide specific cells were calculated as percentage of total CD8+ cells. Evaluation of multimeric analysis was done using the FlowJo software (Tree Star, Oregon, USA). In vitro priming of specific multimer+CD8+ lymphocytes was detected by comparing to negative control stimulations.

Row | Substance | in vitro immunogenicity, Wells positive [%]
40 | 107 (KYFPYLVVI; listed as Homo sapiens) [compound 107] | ++ (20%-49% = ++)
41 | 110 (SYPKIIEEF; listed as Homo sapiens) [compound 110] | ++ (20%-49% = ++)
42 | 363 (SYAELGTTI; listed as Homo sapiens) [compound 363] | + (<20% = +)
43 | 177 (VYFKAGLDVF; listed as Homo sapiens) [compound 177] | + (<20% = +)
44 | 162 (KYTSYILAF; listed as Homo sapiens) [compound 162] | + (<20% = +)
45 | 114 (QYLDGTWSL; listed as Homo sapiens) [compound 114] | +++ (50%-69% = +++)
46 | 180 (KYLQVVGMF; listed as Homo sapiens) [compound 180] | + (<20% = +)
47 | 109 (LFITGGQFF; listed as Homo sapiens) [compound 109] | ++ (20%-49% = ++)
48 | 163 (RYLTISNLQF; listed as Homo sapiens) [compound 163] | + (<20% = +)
49 | 166 (FYTLPFHLI; listed as Homo sapiens) [compound 166] | ++++ (>=70% = ++++)
50 | 182 (AYAQLGYLLF; listed as Homo sapiens) [compound 182] | +++ (50%-69% = +++)
51 | 356 (NYMPGQLTI; listed as Homo sapiens) [compound 356] | + (<20% = +)
52 | 380 (VYTGIDHHW; listed as Homo sapiens) [compound 380] | + (<20% = +)
53 | 144 (VFASLPGFLF; listed as Homo sapiens) [compound 144] | ++ (20%-49% = ++)
54 | 155 (IYKWITDNF; listed as Homo sapiens) [compound 155] | ++ (20%-49% = ++)
55 | 371 (AYSHLRYVF; listed as Homo sapiens) [compound 371] | ++ (20%-49% = ++)
56 | 277 (FYTFPFQQL; listed as Homo sapiens) [compound 277] | +++ (50%-69% = +++)
57 | 104 (SYLTWHQQI; listed as Homo sapiens) [compound 104] | + (<20% = +)
58 | 360 (VFSPDGHLF; listed as Homo sapiens) [compound 360] | ++ (20%-49% = ++)
59 | 140 (RYLINSYDF; listed as Homo sapiens) [compound 140] | +++ (50%-69% = +++)

Row | Substance | in vitro immunogenicity, Wells positive [%]
60 | 105 (IYNETITDLL; listed as Homo sapiens) [compound 105] | + (<20% = +)
61 | 103 (NYIPVKNGKQF; listed as Homo sapiens) [compound 103] | + (<20% = +)
62 | 156 (YYMELTKLLL; listed as Homo sapiens) [compound 156] | + (<20% = +)
63 | 115 (RYLNKSFVL; listed as Homo sapiens) [compound 115] | + (<20% = +)
64 | 102 (VYPFENFEF; listed as Homo sapiens) [compound 102] | +++ (50%-69% = +++)
65 | 168 (RYLEAALRL; listed as Homo sapiens) [compound 168] | +++ (50%-69% = +++)
66 | 112 (IYNFVESKL; listed as Homo sapiens) [compound 112] | +++ (50%-69% = +++)
67 | 106 (IYNETVRDLL; listed as Homo sapiens) [compound 106] | + (<20% = +)
68 | 96 (YYTQYSQTI; listed as Homo sapiens) [compound 96] | + (<20% = +)
69 | 351 (IFHEVPLKF; listed as Homo sapiens) [compound 351] | ++ (20%-49% = ++)
70 | 99 (QYILAVPVL; listed as Homo sapiens) [compound 99] | +++ (50%-69% = +++)
71 | 344 (EYNSDLHQF; listed as Homo sapiens) [compound 344] | + (<20% = +)
72 | 174 (VYEKNGYIYF; listed as Homo sapiens) [compound 174] | ++++ (>=70% = ++++)
73 | 158 (IYEETRGVLKVF; listed as Homo sapiens) [compound 158] | + (<20% = +)
74 | 359 (NYGVLHVTF; listed as Homo sapiens) [compound 359] | + (<20% = +)
75 | 157 (DYIPASGFALF; listed as Homo sapiens) [compound 157] | + (<20% = +)
76 | 367 (LYQDHMQYI; listed as Homo sapiens) [compound 367] | ++ (20%-49% = ++)
77 | 132 (RYPALFPVL; listed as Homo sapiens) [compound 132] | + (<20% = +)
78 | 137 (EYLHNCSYF; listed as Homo sapiens) [compound 137] | + (<20% = +)

— patent US10130693B2, “Peptides, combination of peptides and scaffolds for use in immunotherapeutic treatment of various cancers” (Immatics Biotechnologies GmbH, priority 2015, dated 2018)
